Results: patent publication US20080279912A1, “Use of Cis-Epoxyeicosatrienoic Acids And Inhibitors of Soluble Epoxide Hydrolase to Alleviate Eye Disorders” (Regents of the University of California Office of …, priority 2005, published 2008)

Assays:
[1] = target: T1, sEH (Homo sapiens, UniProt P34913); experiment: Inhibition of sEH (standard assays, stated in text); type: biochemical
T1 sequence (P34913 1-555): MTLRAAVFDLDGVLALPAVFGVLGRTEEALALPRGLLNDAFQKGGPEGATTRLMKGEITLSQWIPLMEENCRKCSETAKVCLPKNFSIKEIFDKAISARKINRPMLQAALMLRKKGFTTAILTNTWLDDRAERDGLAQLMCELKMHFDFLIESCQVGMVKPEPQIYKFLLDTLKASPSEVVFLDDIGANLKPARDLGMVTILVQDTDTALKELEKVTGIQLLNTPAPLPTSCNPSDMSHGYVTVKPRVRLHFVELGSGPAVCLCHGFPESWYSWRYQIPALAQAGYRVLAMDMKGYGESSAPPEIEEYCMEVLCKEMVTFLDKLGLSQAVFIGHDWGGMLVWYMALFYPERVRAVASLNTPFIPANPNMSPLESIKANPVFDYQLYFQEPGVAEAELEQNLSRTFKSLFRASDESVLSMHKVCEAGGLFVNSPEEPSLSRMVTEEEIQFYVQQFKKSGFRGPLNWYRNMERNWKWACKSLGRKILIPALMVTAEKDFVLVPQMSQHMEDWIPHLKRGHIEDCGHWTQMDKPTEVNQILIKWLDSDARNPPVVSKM
Description: Derivatives of urea are transition state mimetics that form a preferred group of sEH inhibitors. […] Any particular urea derivative or other compound can be easily tested for its ability to inhibit sEH by standard assays, such as those discussed herein. The production and testing of urea and carbamate derivatives as sEH inhibitors is set forth in detail in, for example, Morisseau et al., Proc Natl Acad Sci (USA) 96:8849-8854 (1999).
Any of a number of standard assays for determining epoxide hydrolase activity can be used to determine inhibition of sEH. […] Suitable in vitro assays are described in Zeldin et al., J. Biol. Chem. 268:6402-6407 (1993). Suitable in vivo assays are described in Zeldin et al., Arch Biochem Biophys 330:87-96 (1996).

[2] = Metabolic stability; type: in vitro ADME
[3] = tested on: New Zealand white rabbits; experiment: Intraocular pressure in rabbits after treatment of the eye (tonometer); type: in vivo; conditions: one rabbit per treatment, 50 μL/eye; for Change in intraocular pressure (IOP treated eye minus control eye) after topical instillation: 100 μg/mL in artificial tears with 1% DMSO; for Time after treatment at which IOP decline appeared: 100 μg/mL, topical
Protocol: Female New Zealand white rabbits (2.7-3.0 kg) were obtained from Harlan (Indianapolis, Ind.). On test day, rabbits were lightly tranquilized with torbugesic/acepromazine at 0.04 mg/kg, administered subcutaneously. Ten to twenty minutes after administration of the tranquilizer, a drop of proparacaine hydrochloride (0.5% ophthalmic solution) was instilled in each eye to numb the eye prior to taking the intraocular pressure measurement. After 2-5 min, intraocular pressure in each eye (right and left) was measured using a tonometer (Tono-Pen®, Mentor Opthalmics, Santa Barbara, Calif.). Measurements were taken every 3-5 minutes to obtain baseline pressure. Then various treatments were applied (right eye) and after 3-5 minutes measurements were again taken every 3-5 minutes. Data are expressed as the change in intraocular pressure (“IOP”) in the treated eye compared to the control eye (IOP in treated eye—IOP in control eye). […] DMSO is also known to aid penetration through the skin. For a treatment to be effective, it must penetrate the cornea. Later treatments utilized subconjunctival injection. This delivers the compound below the conjunctiva where it is rapidly absorbed, avoiding issues of absorption.
Treatments: Each rabbit was administered one of the following treatments: (1). Epoxyeicosatrienoic acids (EETs) only, 100 μg/mL carboxylmethyl cellulose artificial tears containing 1% dimethyl sulfoxide (DMSO), 50 μL/eye (2). […] EETs only, 10 μg/mL carboxylmethyl cellulose artificial tears containing 1% DMSO, 0.1 cc/eye administered subconjunctivally (4).
Compounds used for the topical treatment of eye diseases become clinically useful only if they can penetrate the intact epithelium of the cornea and conjunctiva and achieve clinically useful concentrations within the eye. Thus for these trials we used both instillation by drops and by subconjunctival injections.

[4] = Stability of EETs on storage, handling and administration; type: physicochemical; conditions: if not exposed to acidic conditions or to sEH

Row | Compound | Activity as an inhibitor of sEH [1] | Metabolic stability [2] | Change in intraocular pressure (IOP treated eye minus control eye) after topical instillation [3] | Time after treatment at which IOP decline appeared [3] | Stability [4]
1 | CCCCCCCCCCCCNC(=O)NC12CC3CC(CC(C3)C1)C2 [ADU, N-Adamantyl-N′-dodecyl urea] | particularly high activity | metabolically stable | – | – | –
2 | O=C(O)CCCCCCCCCCCNC(=O)NC12CC3CC(CC(C3)C1)C2 [AUDA, 12-(3-Adamantan-1-yl-ureido)dodecanoic acid] | – | – | distinct decline in pressure | about 20 minutes | –
3 | cis-Epoxyeicosatrienoic acids [EETs] | – | – | definite declining trend | about 45 minutes | stable
